Our source for the IC50 values is patent US8637525B2, “Compounds for the reduction of beta-amyloid production” (Bristol-Myers Squibb Company, priority 2009, dated 2014).

By IC50 is commonly meant the point on the concentration scale where inhibition reaches its midpoint.

Counter-ions that a name gives are not always drawn.

The first assay concerns Aβ1-42 production. In words: Cellular assay for inhibition of Aβ1-42 production (H4 APP751 SWE clone 8.20). The assay is classed as cell-based. The conditions noted are these: 19 h, H4 APP751 SWE clone 8.20 cells, 19 h incubation; class symbols; read-out: Activity Rating (Aβ42 cellular IC50). The protocol: Cellular Assays for Inhibition of Aβ1-40 and Aβ1-42 Production
H4 cells stably transfected with APP751 containing the Swedish mutation (H4 APP751 SWE clone 8.20, developed at BMS) were maintained in log phase through twice weekly passage at a 1:20 split. […] Following incubation for 19 h in 5% CO2 at 37° C., plates were briefly centrifuged (1000 rpm, 5 min). A 10 μl aliquot from each well was transferred to a second assay plate (Costar 3709) for Aβ40 measurements. Antibody cocktails were freshly prepared by dilution into 40 mM Tris-HCl (pH 7.4) with 0.2% BSA and added to assay plates. For Aβ42 measurements, antibodies specific for the Aβ42 neoepitope (565, developed at BMS; conjugated to the Wallac reagent (Perkin Elmer)) and the N-terminal sequence of Aβ peptide (26D6, developed at SIBIA; conjugated to APC (Perkin Elmer)) were mixed and 20 μl of the mixture was added to each well of the incubated cell plate yielding a final concentration of 0.8 ng/well 565 and 75 ng/well 26D6. For the Aβ40 measurements, antibodies specific for the Aβ40 neoepitope (TSD, developed at BMS; conjugated to the Wallac reagent (Perkin Elmer)) and 26D6 as described above were mixed and 20 μl of the mixture was added to the 10 μl aliquots which had been removed previously from the cell plate yielding a final concentration of 1.6 ng/well TSD and 17.5 ng/well 26D6. Assay plates containing antibodies were sealed with aluminum foil and incubated overnight at 4° C. Signal was determined using a Viewlux counter (Perkin Elmer) and IC50 values determined using curve fitting in CurveMaster (Excel Fit based).
On to `CNC1CCN(c2nc(Nc3ccc(-n4cnc(Cl)c4)c(OC)c3)nc3c2CCC3c2ccc(F)cc2)C1` (centres unmarked) [Example 32, N-(4-(4-chloro-1H-imidazol-1-yl)-3-methoxyphenyl)-7-(4-fluorophenyl)-4-(3-(methylamino)pyrrolidin-1-yl)-6,7-dihydro-5H-cyclopenta[d]pyrimidin-2-amine], for which the IC50 fell in the range of 10 to 100 nM.

For `CCN1Cc2c(nc(Nc3ccc(-n4cnc(Cl)c4)c(OC)c3)nc2N(C)CC)C(c2ccc(F)cc2)C1` (centres unmarked) [Example 158, N2-(4-(4-chloro-1H-imidazol-1-yl)-3-methoxyphenyl)-N4,6-diethyl-8-(4-fluorophenyl)-N4-methyl-5,6,7,8-tetrahydropyrido[4,3-d]pyrimidine-2,4-diamine], the IC50 is 10 to 100 nM.

Take `COc1cc(Nc2nc(N(C)C)c3c(n2)C(O)(c2ccccc2)CC3)ccc1-n1cnc(Cl)c1` (centres unmarked) [Example 179, 2-(4-(4-chloro-1H-imidazol-1-yl)-3-methoxyphenylamino)-4-(dimethylamino)-7-phenyl-6,7-dihydro-5H-cyclopenta[d]pyrimidin-7-ol]: the IC50 lay in the range of 10 to 100 nM.

On to `Cc1ccc(C(C)C)cc1Nc1nc(Nc2ccc(C#N)cc2)nc2c1CCC2c1ccccc1` (centres unmarked) [Example 215A, 4-(4-(5-isopropyl-2-methylphenylamino)-7-phenyl-6,7-dihydro-5H-cyclopenta[d]pyrimidin-2-ylamino)benzonitrile], for which the IC50 was > 1000 nM.

For the molecule `CNc1nc(Nc2ccc(OC(F)(F)F)cc2)nc2c1CCC2c1ccccc1` (centres unmarked) [Example 236, N4-methyl-7-phenyl-N2-(4-(trifluoromethoxy)phenyl)-6,7-dihydro-5H-cyclopenta[d]pyrimidine-2,4-diamine], the IC50 is > 1000 nM.

For the molecule `CCNc1nc(Nc2ccc(-n3cnc(Cl)c3)c(OC)c2)nc2c1CCOC2c1ccc(F)cc1` (racemic) [Example 88, N2-(4-(4-chloro-1H-imidazol-1-yl)-3-methoxyphenyl)-N4-ethyl-8-(4-fluorophenyl)-6,8-dihydro-5H-pyrano[3,4-d]pyrimidine-2,4-diamine], the IC50 lay within 10 to 100 nM.

Turning to `COc1cc(Nc2nc3c(c(N4C[C@@H](C)O[C@@H](C)C4)n2)COC3c2ccc(F)cc2)ccc1-n1cnc(Cl)c1` (stereo partly drawn) [Example 84A, N-(4-(4-chloro-1H-imidazol-1-yl)-3-methoxyphenyl)-4-((2S,6R)-2,6-dimethylmorpholino)-7-(4-fluorophenyl)-5,7-dihydrofuro[3,4-d]pyrimidin-2-amine], the IC50 was in the range of 10 to 100 nM.

As for `CNc1nc(Nc2ccc(-n3cnc(Cl)c3)c(OC)c2)nc2c1CCCC2(O)c1ccccc1` (centres unmarked) [Example 178, 2-(4-(4-chloro-1H-imidazol-1-yl)-3-methoxyphenylamino)-4-(methylamino)-8-phenyl-5,6,7,8-tetrahydroquinazolin-8-ol], the IC50 lay within 1.5 to 9.9 nM.

On to `CNc1nc(Nc2ccccc2C#N)nc2c1CCC2c1ccccc1` (centres unmarked) [Example 228, 2-(4-(methylamino)-7-phenyl-6,7-dihydro-5H-cyclopenta[d]pyrimidin-2-ylamino)benzonitrile], for which the IC50 is > 1000 nM.

Take `CNc1nc(Nc2ccc(C(C)=O)cc2)nc2c1CCC2c1ccccc1` (centres unmarked) [Example 257, 1-(4-(4-(methylamino)-7-phenyl-6,7-dihydro-5H-cyclopenta[d]pyrimidin-2-ylamino)phenyl)ethanone]: the IC50 lay in the range of 10 to 100 nM.

As to `CNc1nc(Nc2ccc(-c3cnn(C)c3)c(OC)c2)nc2c1CCC2c1ccccc1` (centres unmarked) [Example 209, N2-(3-methoxy-4-(1-methyl-1H-pyrazol-4-yl)phenyl)-N4-methyl-7-phenyl-6,7-dihydro-5H-cyclopenta[d]pyrimidine-2,4-diamine], the IC50 was 1.5 to 9.9 nM.

On to `CNc1nc(Nc2ccc3nc(C)sc3c2)nc2c1CCC2c1ccccc1` (centres unmarked) [Example 255, N4-methyl-N2-(2-methylbenzo[d]thiazol-6-yl)-7-phenyl-6,7-dihydro-5H-cyclopenta[d]pyrimidine-2,4-diamine], for which the IC50 was > 1000 nM.

For `CNc1nc(Nc2ccc(C(C)(C)C)cc2)nc2c1CCC2c1ccccc1` (centres unmarked) [Example 234, N2-(4-tert-butylphenyl)-N4-methyl-7-phenyl-6,7-dihydro-5H-cyclopenta[d]pyrimidine-2,4-diamine], the IC50 is > 1000 nM.

The same assay, now with this note: 19 h, H4 APP751 SWE clone 8.20 cells, 19 h incubation; read-out: Activity Rating (Aβ42 cellular IC50), numeric value.
Turning to `CNc1nc(Nc2ccc(-n3cnc(C#N)c3)c(OC)c2)nc2c1CCC2c1ccccc1` (centres unmarked) [Example 204, 1-(2-methoxy-4-(4-(methylamino)-7-phenyl-6,7-dihydro-5H-cyclopenta[d]pyrimidin-2-ylamino)phenyl)-1H-imidazole-4-carbonitrile], the IC50 was found to be 19 nM.

Take `CNc1nc(Nc2ccc(-n3ncnc3C)c(F)c2)nc2c1CCOC2c1ccccc1` (centres unmarked) [Example 87, N2-(3-fluoro-4-(5-methyl-1H-1,2,4-triazol-1-yl)phenyl)-N4-methyl-8-phenyl-6,8-dihydro-5H-pyrano[3,4-d]pyrimidine-2,4-diamine]: the IC50 worked out at 60 nM.

Consider `COc1cc(Nc2nc3c(c(N4CC[C@@H](F)C4)n2)COCC3c2ccc(OC(F)(F)F)cc2)ccc1-n1cnc(Cl)c1` (some centres unmarked) [Example 123B], for which the IC50 came out at 370 nM.

As for `CCC(COC)Nc1nc(Nc2ccc(-n3cnc(Cl)c3)c(OC)c2)nc2c1CCC2c1ccc(F)cc1` [Example 48, N2-(4-(4-chloro-1H-imidazol-1-yl)-3-methoxyphenyl)-7-(4-fluorophenyl)-N4-((R)-1-methoxybutan-2-yl)-6,7-dihydro-5H-cyclopenta[d]pyrimidine-2,4-diamine, 2 TFA], the IC50 was 18 nM.

With `COc1cc(Nc2nc3c(c(N(C)C(C)=O)n2)CCC3c2ccccc2)ccc1-n1cnc(Cl)c1` (centres unmarked) [Example 212, N-(2-(4-(4-chloro-1H-imidazol-1-yl)-3-methoxyphenylamino)-7-phenyl-6,7-dihydro-5H-cyclopenta[d]pyrimidin-4-yl)-N-methylacetamide], the IC50 was found to be 33 nM.

Regarding `CCNc1nc(Nc2ccc(-n3cnc(Cl)c3)c(OC)c2)nc2c1COCC2c1ccc(F)c(F)c1` (racemic) [Example 113, N2-(4-(4-chloro-1H-imidazol-1-yl)-3-methoxyphenyl)-8-(3,4-difluorophenyl)-N4-ethyl-7,8-dihydro-5H-pyrano[4,3-d]pyrimidine-2,4-diamine, TFA], the IC50 was found to be 5.7 nM.

Take `CNC1CN(c2nc(Nc3ccc(-n4cnc(Cl)c4)c(OC)c3)nc3c2CCC3c2ccc(F)cc2)C1` (centres unmarked) [Example 33, N-(4-(4-chloro-1H-imidazol-1-yl)-3-methoxyphenyl)-7-(4-fluorophenyl)-4-(3-(methylamino)azetidin-1-yl)-6,7-dihydro-5H-cyclopenta[d]pyrimidin-2-amine]: the IC50 is 100 nM.

The same assay, now with this note: H4 APP751 SWE clone 8.20 cells, 19 h incubation; class symbols; read-out: Activity Rating (Aβ42 cellular IC50).
Take `CCN(C)c1nc(Nc2ccc(-n3cnc(Cl)c3)c(OC)c2)nc2c1CCC2c1ccccc1` (single isomer, unassigned) [Example 5A, N^2-(4-(4-chloro-1H-imidazol-1-yl)-3-methoxyphenyl)-N^4-ethyl-N^4-methyl-7-phenyl-6,7-dihydro-5H-cyclopenta[d]pyrimidine-2,4-diamine]: the IC50 was 1.5 to 9.9 nM.

With `COc1cc(Nc2nc3c(c(N(C)C)n2)COCC3c2ccccc2)ccc1-n1cnc(Cl)c1` (single isomer, unassigned) [Example 53A, N^2-(4-(4-Chloro-1H-imidazol-1-yl)-3-methoxyphenyl)-N^4,N^4-dimethyl-8-phenyl-7,8-dihydro-5H-pyrano[4,3-d]pyrimidine-2,4-diamine], the IC50 was in the range of 1.5 to 9.9 nM.

`CNc1nc(Nc2ccc(-n3ncnc3C)c(OC)c2)nc2c1CN(C)CC2c1ccc(F)cc1` (centres unmarked) [Example 199, 8-(4-fluorophenyl)-N2-(3-methoxy-4-(5-methyl-1H-1,2,4-triazol-1-yl)phenyl)-N4,6-dimethyl-5,6,7,8-tetrahydropyrido[4,3-d]pyrimidine-2,4-diamine]: the IC50 is 10 to 100 nM.

For `COc1cc(Nc2nc3c(c(N4CCCC4C)n2)CCC3c2ccc(F)cc2)ccc1-n1cnc(Cl)c1` (single isomer, unassigned) [Example 20, N-(4-(4-chloro-1H-imidazol-1-yl)-3-methoxyphenyl)-7-(4-fluorophenyl)-4-(2-methylpyrrolidin-1-yl)-6,7-dihydro-5H-cyclopenta[d]pyrimidin-2-amine], the IC50 was 1.5 to 9.9 nM.

`COc1cc(Nc2nc3c(c(N4CC(OC)C4)n2)CCC3c2ccccc2)ccc1-n1cnc(Cl)c1` (single isomer, unassigned) [Example 183B, N-(4-(4-chloro-1H-imidazol-1-yl)-3-methoxyphenyl)-4-(3-methoxyazetidin-1-yl)-7-phenyl-6,7-dihydro-5H-cyclopenta[d]pyrimidin-2-amine]: the IC50 lay in the range of 10 to 100 nM.

The same assay, now with this note: H4 APP751 SWE clone 8.20 cells, 19 h incubation; read-out: Activity Rating (Aβ42 cellular IC50), numeric value.
Turning to `CCNc1nc(Nc2ccc(-n3cnc(Cl)c3)c(OC)c2)nc2c1CN(CC(F)F)CC2c1ccccc1` (centres unmarked) [Example 197, N4-ethyl-N2-(3-methoxy-4-(4-chloro-1H-13-imidazol-1-yl)phenyl)-8-phenyl-6-(2,2-difluoroethyl)-5,6,7,8-tetrahydropyrido[4,3-d]pyrimidine-2,4-diamine], the IC50 is 16 nM.
